From US20200181284A1, “EPIGENETIC INHIBITORS FOR SENSITIZING HEMATOLOGIC OR OTHER MALIGNANCIES TO GLUCOCORTICOID THERAPY” (UNIVERSITY OF SOUTHERN CALIFORNIA, priority 2017, published 2020)

Tests used:
[1] = system: NALM-6 cells; assay: shRNA screen: selection of infected NALM-6 cells with dex, viability after each round; assay type: cell-based, human; conditions: for viability at 0.05 µM: Homo sapiens, 50 nM dexamethasone
Protocol: Transduction: NALM-6 cells were grown in T-175 flasks maintaining a cell density below 2 million cells/ml until a sufficient number of cells were obtained. In order to obtain a sufficient number of cells infected with each shRNA to measure both enrichment and depletion in response to dex selection, we sought to infect >1000 cells with each shRNA. In order to minimize double infection, we targeted an infection rate of ˜30%. For the Cancer library, we estimated that for 1000× coverage of 54,775 shRNAs at a 30% infection rate, we would have to start with ˜200 million cells. To ensure optimal infection, NALM-6 cells were plated at density of 1.5 million cells/ml in 6 well plates. Virus was added at a ratio of 1:10 viral supernatant/NALM-6 culture volume. Cells were the spinfected at 1000×g, 33° C., for 2 hours in the presence of 8 µg/ml polybrene. Cells were then washed in PBS, resuspended in fresh RPMI+10% FBS, and allowed to recover. Our actual infection rate was ˜70%, as measured by flow cytometry using the mCherry marker of the pMK1098 vector, for an approximate coverage of 2000 cells for each shRNA. Cells were then selected for infection using 0.5 µg/ml puromycin for 2 days, washed, and allowed to recover. The infected cells were then expanded and split into 5 pools: Infected (Time 0 or T0), Infected that would be untreated (TF), and three pools that would be treated with dex (R1-3). T0 and TF was composed of 100 million cells. T0 was frozen immediately, and TF was allowed to grow to a density no greater than 3 million cells/ml through the course of the experiment. Since we expected ˜80% death upon treatment, we started with 500 million cells each for R1-3.
Selection: Previous attempts at the screen had been hampered by inconsistent infection and selection with dex. We therefore decided to split TF and R1-3 into two experiments and treat with 50 nM dex, which kills ˜80% of NALM-6 cells in 3 days, and 1 pM dex, which kills >90%. TF samples were treated with equal volumes of DMSO vehicle. A separate TF sample was culture for both the 50 nM and 1 pM experiments. Cells were treated with each of these concentrations for three days, washed, allowed to recover, then treated two more times. From infection to the end of the experiment took 35 days for 50 nM dex and 46 days for 1 pM.
AGEK Screen: Based on the results of the Cancer panel screen, we elected to screen the three other panels (Apoptosis, Gene Expression, Kinases) under 50 nM selection by dex. The screen was performed largely as described above, but our infection rate was <30% for a coverage of ˜900 cells/shRNA.

[2] = system: NALM-6; assay: Cell death assay (PrestoBlue viability, 3 days); assay type: cell-based; conditions: Homo sapiens
Protocol: Cell death assays: We used PrestoBlue to measure cell viability in response to knockdown and treatment. Cells were grown to a density of 250,000 cell/ml, then dispensed into black tissue culture plates and grown overnight. In the morning, cells were treated. For both CAL-101 (Selleckchem, S2226) and dex (Sigma, D4902), viability was measured after 3 days. As PrestoBlue measures NADPH/NADH metabolites, the balance of which can be affected by GC treatment, we performed frequent cell count spot checks manually by trypan blue exclusion to ensure that fluorescence measurements reflected true viability. Both CAL-101 and dex were dissolved in ethanol, and used 1:1000 in cell culture for a final ethanol concentration of 0.1%. […] Viabilities and EC50 were then calculated using four parameter non-least squares fitting using Prism 6. qPCR of Causative genes: Cells were grown to a density of 1 million cells/ml, then aliquoted into 6 well plates in the afternoon, then grown overnight. […]
The optimal signal was determined by incubating cells with 1 ^M dex for 0, 4, 8, and 24 hours. […] Each experiment was performed at least three times, and analyzed using GraphPad (Prism 6). Significant differences between drug and control and between either drug alone and combinations was determined by two sided Student's t-test (P-Value<0.05). […]

[3] = system: RCH-ACV; assay: Cell death assay (PrestoBlue viability, 3 days); assay type: cell-based, human
Protocol: (§1) Cell death assays: We used PrestoBlue to measure cell viability in response to knockdown and treatment. Cells were grown to a density of 250,000 cell/ml, then dispensed into black tissue culture plates and grown overnight. In the morning, cells were treated. For both CAL-101 (Selleckchem, S2226) and dex (Sigma, D4902), viability was measured after 3 days. As PrestoBlue measures NADPH/NADH metabolites, the balance of which can be affected by GC treatment, we performed frequent cell count spot checks manually by trypan blue exclusion to ensure that fluorescence measurements reflected true viability. Both CAL-101 and dex were dissolved in ethanol, and used 1:1000 in cell culture for a final ethanol concentration of 0.1%. Combination treatments were performed in triplicate in 384 well plates with 20 dilutions of dex from 10^M to 0 and 9 dilutions of CAL-101 from 10^M to 0. Viabilities and EC50 were then calculated using four parameter non-least squares fitting using Prism 6. qPCR of Causative genes: Cells were grown to a density of 1 million cells/ml, then aliquoted into 6 well plates in the afternoon, then grown overnight. Cells were then treated with the drugs and times indicated, at which point cells were spun down at 400 g for 5 minutes, the medium aspirated, and the pellet resuspended in 0.7 ml Qiazol/Trizol and frozen. RNA was then isolated using the miRNAeasy protocol. cDNA was then prepared form 1^g of RNA suing SuperScript3, and qPCR performed using BioRad iQ mix. Primers for qPCR were designed using the IDT web site, then tested for each gene. […] Expression levels for each gene were corrected for primer efficiency, normalized to RPL19, then compared to controls (Pfaffl, 2001).
(§2) The optimal signal was determined by incubating cells with 1 ^M dex for 0, 4, 8, and 24 hours. […] Cells were incubated with dex alone, CAL-101 alone, and in combination for 24 hours, then harvested and qPCR performed as described above. Each experiment was performed at least three times, and analyzed using GraphPad (Prism 6). Significant differences between drug and control and between either drug alone and combinations was determined by two sided Student's t-test (P-Value<0.05).
(§3) Three cell lines (NALM6, SUP-B15, and RCH-ACV), one resistant patient sample (HM3101), and one relapsed Phlike xenograft (ALL121) were incubated with increasing concentrations of dex or CAL-101 for 3 days. Cell viability was measured by PrestoBlue staining. Curves, values, and errors are based on at least 3 replicates. Bar plot of the EC50, calculated by four-parameter least-squares fitting (Both plotted and calculated in GraphPad Prism).

[4] = system: SUP-B15; assay: Cell death assay (PrestoBlue viability, 3 days); assay type: cell-based, human; conditions: Homo sapiens
Protocol: as §1, §2, §3

[5] = system: relapsed B-ALL cells (ALL121); assay: PDX model of ALL: NSG mice engrafted with ALL121, spleen size and human ALL cells in spleen; assay type: in vivo; conditions: dex monotherapy 7.5 mg/kg daily, two weeks
Excerpt: As proof of concept, we tested this combination in a PDX model of ALL.

[6] = system: LAX7R and LAX56 primary human B-ALL cells; assay: Survival of primary B-ALL cells co-cultured with OP-9 feeder cells (Annexin V/7AAD); assay type: cell-based; conditions: 100-200 nM Dex alone, 3 or 5 days
Protocol: Primary ALL cells (LAX7R and LAX56) were established from mouse xenografts derived from patient samples (Adam et al., 2017; Hsieh et al., 2013). They were cultured in 24 well tissue-culture plates on irradiated OP-9 cells with growth medium containing MEM-α with 20% heat-inactivated fetal bovine serum, and 100 IU/ml penicillin and 100 μg/ml streptomycin. On day 3 and day 5 after the addition of drugs, ALL cells were collected, and apoptosis was assessed using PE Annexin V Apoptosis Detection Kit with 7-AAD.
As shown FIGS. 41A-1, 41A-2, 41B-1, and 41B-2, LAX7R (FIGS. 41A-1 and 41A-2) or LAX56 (FIGS. 41B-1 and 41B-2) primary human B-ALL cells were co-cultured with OP-9 feeder cells for 3 days (left) or 5 days (right) in the presence of the indicated drugs, and cell survival was determined by staining with Annexin/7AAD. p-value was calculated using a paired t-test, and different symbols were used to indicate p-values between different groups.+indicates statistical significance (+p≤0.05, ++p≤0.01 and + + + p≤0.001) between Dexamethasone or AZD2811 treated group and DMSO control group; # indicates statistical significance (#p≤0.05, ##p≤0.01 and # # # p≤0.001) between AZD2811+Dexamethasone combination group and AZD2811 group; * indicates statistical difference (*p≤0.05, **p≤0.01, * * *p≤0.001) between combination group and respective Dexamethasone treated groups. Values shown are mean and SD for 3 biological replicates, which are representative of 3 independent experiments.

For C[C@@H]1C[C@H]2[C@@H]3CCC4=CC(=O)C=C[C@]4(C)[C@@]3(F)[C@@H](O)C[C@]2(C)[C@@]1(O)C(=O)CO [dex, dexamethasone], the NALM-6 cells killed ([1]; 1 pM dex) was over 90%, the NALM-6 cells killed ([1]; 50 nM dex, 3 days) was about 80% and the viability at 0.05 µM ([1]; NALM-6, Apoptosis, Gene Expression, and Kinase Panels, treatment number 1) was 52%. The viability at 0.05 µM ([1]; NALM-6, Apoptosis, Gene Expression, and Kinase Panels, treatment number 2) was 66%, the viability at 0.05 µM ([1]; NALM-6, Apoptosis, Gene Expression, and Kinase Panels, treatment number 3) was 65% and the viability at 0.05 µM ([1]; NALM-6, Cancer Panel, treatment number 1) was 18%. For the same compound, the viability at 0.05 µM ([1]; NALM-6, Cancer Panel, treatment number 2) was 72%, the viability at 0.05 µM ([1]; NALM-6, Cancer Panel, treatment number 3) was 58% and the EC50 ([2]; NALM-6, 72 h, NALM6, viability after 3 days, read-out: EC50 for dex) was 3.9 nM. For the same compound, the EC90 ([2]; NALM-6, read-out: approximately the EC90 for dex) was about 62.5 nM, the EC50 ([3]; Homo sapiens, 72 h, viability after 3 days, estimate, read-out: EC50 for dex) was 500 nM and the viability maintained ([3]; even at the highest dex concentrations) was about 50%. For the same compound, the EC50 ([4]; 72 h, SUP-B15, viability after 3 days, read-out: EC50 for dex) was 1.6 nM, the EC90 ([4]; SUP-B15, read-out: approximately the EC90 for dex) was about 4 nM and the “effect on spleens (spleen size)” value [5] was “no effect”. For the same compound, the cell survival [6] was 20-60%.
